Patent publication EP2431041A1, “PHARMACEUTICAL COMPOSITION FOR TREATING CARDIOVASCULAR DISORDER AND USE THEREOF” (Chengdu Kanghong Pharmaceutical Co., Ltd., priority 2009, dated 2010)

Assays:
[1] = system: rat with an acute myocardial ischemia caused by PIT; assay: rat myocardial ischemia caused by pituitrin (PIT), ST segment of ECG (Test Example 5); assay type: in vivo, SD rats; settings: for ΔST Σ: sum of ST segment shift; for ΔST 10 sec / ΔST 30 sec / ΔST 1 min / ΔST 2 min / ΔST 4 min / ΔST 6 min / ΔST 8 min / ΔST 10 min / ΔST 13 min / ΔST 15 min: time after PIT injection
Procedure: Each animal in all groups was intragastrically administered with the corresponding drug at a volume of 10 ml/kg, for 7 successive days. The rat was injected intraperitoneally with 1% sodium pentobarbital (30 mg/kg) 100 min after the final administration. When anesthetized, the animal was immobilized onto a frog board and subjected to trace of normal electrocardiogram over 2 min with Lead II. Then, PIT (1.5 IU/kg) was injected slowly over 20 s into the rat through its tail vein. The changes in the electrocardiogram were traced in 15 min after PIT injection. The data from the ST segment were collected at the time-points of 10 s, 30 s, 1 min, 2 min, 4 min, 6 min, 8 min, 10 min, 13 min, and 15 min. ST segment shifts at the various time-points after modeling were compared.

[2] = system: rabbit with lipid disorders; assay: lipid disorders in rabbit, serum TC and TG (Test Example 8); assay type: in vivo, Japanese white rabbit
From the text: Procedure: Animals were subjected to acclimation feeding for 10 days. […] After raised with the feed for 15 days, the animals were subjected to blood sampling from central ear artery while fasting. The sera were separated and analyzed for various blood lipid indices. From 40 animals raised with the high-fat feed, 30 animals were selected on the basis of TC content and assigned into five groups by randomized block design with six animals per group; six animals raised with the basal feed were used as the blank control group. […] Administration lasted for 4 weeks. […] ANOVA of randomized block design was used for comparisons among multiple groups, and SNK-q test was used for comparisons between two groups.
Blood samples were collected from the fasting animals in each of the groups of the experiment prior to the administration and in 24 h after the final administration and assayed for the content of total cholesterol (TC) and triglyceride (TG). Table 11 Effect of the drugs in each of the groups on serum TC and TG levels ( x ± s, n =6).

Beagle canines = assay: long-term toxicity test in canine (21 days): ALT in blood and other indices; assay type: in vivo; settings: intragastric once per day
From the text: Animals: Conventional, healthy adult Beagle canines, evenly composed of males and females, 6-8 month-old, body weight of 9 - 11 kg.
Medicaments: Z01 (echinocystic acid:oleanolic acid = 3:1, prepared by the method in Example 4, in which the total content of the echinocystic acid and the oleanolic acid is 99%), in-house-made off-white tablet, Lot number: 090205; Z02 (echinocystic acid:oleanolic acid = 1:1, prepared by the method in Example 1, in which the amount of echinocystic acid and oleanolic acid accounts to 94.2% of the amount of the extract), in-house-made off-white tablet, Lot number: 090206; in-house-made echinocystic acid EA (containing 98.5% of echinocystic acid), pure-white powder, Lot number: 090107; physiological saline, colorless clarified liquid, provided by Chengdu QingShan LiKang Pharmarceutical co., Ltd., Lot number: A0803025; Alanine Transarninase (ALT) Kit, provided by Sichuan MiKe Science & Technology Co., Ltd., Lot number: 1007071.
Major instruments: a fully automated blood biochemistry analyzer (Roche Integra 400 Plus, Switzerland), a fully automated hematology analyzer (Abbott CELL-DYN 3700SL, USA), a fully automated blood coagulation analyzer (SYSMEX CA-500, Japan), a four-channel physiological recording system (RM6240, Chengdu Instrument Factory, China), electronic balance, etc.
Procedure: The normal Beagle canines were subjected to quanrantine for two weeks and a dog with abnormal parameters was rejected. The selected dogs were assigned randomly into ten groups: blank control group, low dose Z01 group (the dosage of echinocystic acid, 50 mg/kg), medium dose Z01group (the dosage of echinocystic acid, 150 mg/kg), high dose Z01 group (the dosage of echinocystic acid, 250 mg/kg), Z02 low dose group (the dosage of echinocystic acid, 50 mg/kg), medium dose Z02 group (the dosage of echinocystic acid, 150 mg/kg), high dose Z02 group (echinocystic acid is 250 mg/kg), low dose EA group (50mg/kg), medium dose EA group (150mg/kg), high dose EA group (250mg/kg), with 8 animals per group evenly composed of males and females. All of the dogs in individual groups were intragastrically administered at a volume of 10 ml/kg, once per day and successively for 21 days. Prior to and at Day 21 after the administration, samples of urine excreted naturally in the morning and blood from forelimb vein were collected respectively for urine routine, blood routine, and coagulation-time determination, meanwhile the lead II electrocardiogram was traced. Prior to the administration and at Day 4, Day 7, Day 14, and Day 21 after the first administration, blood samples were collected from the canine forelimb vein and assayed on the biochemical indicator associated with liver function. In twenty-four hours after the final administration, the animals in each group were dissected, autopsied systematically and observed with naked eyes. The parenchymal organs were weighed, subjected to calculation of organ coefficients, and examined histopathologically. […] Pathologic results were descriptively discussed.

[3] = OA 17.0 mg/kg intragastric 7 days
[4] = OA 4.0 mg/kg intragastric 4 weeks
[5] = EA 50.8 mg/kg intragastric 7 days
[6] = EA 12.2 mg/kg intragastric 4 weeks
[7] = echinocystic acid content 50 mg/kg
[8] = echinocystic acid content 150 mg/kg
[9] = echinocystic acid content 250 mg/kg

CC1(C)CC[C@]2(C(=O)O)CC[C@]3(C)C(=CC[C@@H]4[C@@]5(C)CC[C@H](O)C(C)(C)[C@@H]5CC[C@]43C)[C@@H]2C1 [OA, oleanolic acid]
ΔST Σ [1, 3]: 0.739± 0.408Δ mV | ΔST 10 sec [1, 3]: 0.132± 0.113 mV | ΔST 30 sec [1, 3]: 0.068± 0.044 mV | ΔST 1 min [1, 3]: 0.079± 0.052 mV | ΔST 2 min [1, 3]: 0.061± 0.034 mV | ΔST 4 min [1, 3]: 0.082± 0.055 mV | ΔST 6 min [1, 3]: 0.080± 0.067 mV | ΔST 8 min [1, 3]: 0.073± 0.037 mV | ΔST 10 min [1, 3]: 0.051± 0.032 mV | ΔST 13 min [1, 3]: 0.060± 0.037 mV | ΔST 15 min [1, 3]: 0.053± 0.042 mV | Serum TC After administration [2, 4]: 12.05 ± 6.48 mmol/L | Serum TC prior to administration [2, 4]: 14.97 ± 5.22 mmol/L | Serum TG After administration [2, 4]: 1.83 ± 1.02 mmol/L | Serum TG prior to administration [2, 4]: 2.06 ± 0.44 mmol/L

CC1(C)CC[C@]2(C(=O)O)[C@H](O)C[C@]3(C)C(=CC[C@@H]4[C@@]5(C)CC[C@H](O)C(C)(C)[C@@H]5CC[C@]43C)[C@@H]2C1 [EA, echinocystic acid]
ΔST Σ [1, 5]: 0.653± 0.367 mV | ΔST 10 sec [1, 5]: 0.089± 0.089 mV | ΔST 30 sec [1, 5]: 0.060± 0.053 mV | ΔST 1 min [1, 5]: 0.064± 0.032 mV | ΔST 2 min [1, 5]: 0.075± 0.063 mV | ΔST 4 min [1, 5]: 0.060± 0.039 mV | ΔST 6 min [1, 5]: 0.063± 0.045 mV | ΔST 8 min [1, 5]: 0.070± 0.048 mV | ΔST 10 min [1, 5]: 0.061± 0.042 mV | ΔST 13 min [1, 5]: 0.055± 0.039 mV | ΔST 15 min [1, 5]: 0.056± 0.048 mV | Serum TC After administration [2, 6]: 9.77 ± 6.30 mmol/L | Serum TC prior to administration [2, 6]: 15.07 ± 5.48 mmol/L | Serum TG After administration [2, 6]: 1.64 ± 0.89 mmol/L | Serum TG prior to administration [2, 6]: 2.17 ± 1.04 mmol/L | ALT at different time-points after administration, Day 4 (Beagle canines; [7]): 41.4±9.3 U/L | ALT at different time-points after administration, Day 7 (Beagle canines; [7]): 60.3±11.6 U/L | ALT at different time-points after administration, Day 14 (Beagle canines; [7]): 58.3±9.1 U/L | ALT at different time-points after administration, Day 21 (Beagle canines; [7]): 69.7±6.2 U/L | ALT, Prior to administration (Beagle canines; [7]): 38.8±5.8 U/L | ALT at different time-points after administration, Day 4 (Beagle canines; [8]): 42.6±8.9 U/L | ALT at different time-points after administration, Day 7 (Beagle canines; [8]): 70.6±22.3 U/L | ALT at different time-points after administration, Day 14 (Beagle canines; [8]): 121.3±19.3 U/L | ALT at different time-points after administration, Day 21 (Beagle canines; [8]): 124.5±35.3 U/L | ALT, Prior to administration (Beagle canines; [8]): 40.3±6.2 U/L | ALT at different time-points after administration, Day 4 (Beagle canines; [9]): 45.4±9.9 U/L | ALT at different time-points after administration, Day 7 (Beagle canines; [9]): 146.5±49.0 U/L | ALT at different time-points after administration, Day 14 (Beagle canines; [9]): 167.5±43.3 U/L | ALT at different time-points after administration, Day 21 (Beagle canines; [9]): 151.3±86.6 U/L | ALT, Prior to administration (Beagle canines; [9]): 37.3±5.2 U/L
